According to US11427544B2, “Histone deacetylase 6 inhibitors and use thereof” (TAIPEI MEDICAL UNIVERSITY, priority 2016, dated 2022):

Legend:
MDA-MB-231 Breast = test: Tumor growth inhibition, MDA-MB-231 xenograft; format: in vivo, athymic nude mice; settings: qd, intraperitoneal
Experimental: (§1) An in vivo study was conducted to evaluate the efficacy of compounds of Formula (I) in suppressing tumor growth in multiple human cancer types.
(§2) Eight-week-old athymic nude mice were group-housed under conditions of constant photoperiod (12 h light/12 h dark at 21-23° C. and 60-85% humidity) with ad libitum access to sterilized food and water. All animal experiments followed ethical standards, and protocols were reviewed and approved by the Animal Use and Management Committee of National Taiwan University. Each mouse was inoculated subcutaneously with 1×10^6˜1×10^7 human cancer cells in a total volume of 0.1 mL serum-free medium containing 50% Matrigel (BD Biosciences). As tumors became established (˜100 mm^3), mice were randomized to various groups to be treated with pre-determined materials (n=6-8/group): (i) control group: 0.5% DMSO/0.5% Cremophor/90% D5W and (ii) treatment groups: Compounds 12 and 28 at pre-determined doses daily. Mice received treatment by intraperitoneal injection for the duration of the study. Tumors were measured weekly using calipers. Tumor size, in mm^3, was calculated according to the formula: Tumor volume=(w^2×l)/2, where w and 1 respectively represent the width and length (both in mm) of the tumor.

[1] = tested on: RPMI8226, U266, and NCI-H929 multiple myeloma cell lines; test: Apoptosis in multiple myeloma cells, combined with bortezomib (propidium iodide, FACScan); format: cell-based, human; settings: 24 hours
Experimental: A study was conducted to evaluate the effect of a compound of Formula (I) combined with bortezomib in inducing apoptosis in multiple myeloma cells.
To detect cell cycle progression, cells were incubated with or without the indicated agent for 24 hours, washed twice with ice-cold PBS, collected by centrifugation, and fixed in 70% (v/v) ethanol for 2 hours at −20° C. They were subsequently incubated for 30 minutes at room temperature with 0.2 mL of deoxyribonucleic acid (DNA) extraction buffer (0.2 M Na2HPO4 and 0.1 M citric acid buffer, pH 7.8), re-suspended in 1 mL of propidium iodide staining buffer (0.1% Triton X-100, 100 μg/mL of RNase A, and 80 μg/mL of propidium iodide in PBS), incubated at 37° C. for 30 minutes in darkness, sorted by FACScan, and analyzed using CellQuest software (BD Biosciences).
(§3) The study was performed according to the protocol reported in Hsieh et al., Cell Death and Disease, 2014, April; 5:e1166.

[2] = Safety in ICR mice, 7-day intraperitoneal dosing; format: in vivo; settings: 50, 100, and 200 mg/kg intraperitoneally once a day for 7 days, monitored another 7 days
Experimental: In addition, both Compounds 12 and 28 were studied to evaluate their safety in animals.
[…]. The animals were dosed intraperitoneally once a day for 7 days and then monitored for another 7 days. The animals were weighed daily for 1 week and then twice weekly.

[3] = tested on: MDA-MB-231 Breast cancer cell line; test: Antiproliferative activity, MDA-MB-231; format: cell-based, human; settings: Homo sapiens, MDA-MB-231, MDA-MB-231
Experimental: (§4) A study was conducted to evaluate the inhibitory activity of compounds of Formula (I) in inhibiting HDAC6, antiproliferative activity of test compounds in suppressing cancer cell growth, and selectivity of inhibiting HDAC6 over other HDAC isoforms.
as §3
(§5) Shown in Table 2 below are antiproliferative activities (measured by their half maximal concentration for inhibiting cell growth, i.e., GI50) of the test compounds against various cancer cell lines.

polyubiquited proteins = test: Accumulation of polyubiquited proteins; format: cell-based; settings: dose-dependent
Experimental: A study was conducted to evaluate the activity of a compound of Formula (I) in inhibiting HDAC6-dynein binding and inducing accumulation of polyubiquited proteins.
Cell lysates were immunoprecipitated overnight at 4° C. with 1 μg of dynein antibody and A/G-agarose beads. The precipitated beads were washed three times with 1 mL of an ice-cold cell lysis buffer solution. The resulting immune complex was resolved by 10% SDS-PAGE gel electrophoresis, followed by immunoblotting assay using anti-HDAC6 Ab.
The study was performed according to the protocol reported in Chen et al., Journal of Immunology, 2008, 181(12):8441-8449.

[4] = tested on: Aβ42 production in pCAX APP 695 plasmid-transfected Neuro 2a and SH—SYSY cells; test: Aβ42 production in cell culture supernatants; format: cell-based; settings: pCAX APP 695 transfected Neuro 2a and SH—SYSY cells; 0.1-10 μM, 24 hours
Experimental: A study was conducted to evaluate the effect of compounds of Formula (I) in amyloid precursor protein (APP) levels and Aβ42 production.
Moreover, neuro 2a or SH—SYSY cells (1×10^5) were transfected with pCAX APP 695 plasmid for 24 hours, followed by incubation with Compound 12 or Compound 28 (0.1-10 μM) for another 24 hours. Cell culture supernatants were assayed for Aβ42 production.

HCT116 Colorectal = test: Tumor growth inhibition, HCT116 xenograft; format: in vivo, athymic nude mice; settings: qd, intraperitoneal
Experimental: as §1, §2

[5] = tested on: A549 lung cancer cell line; test: Antiproliferative activity, A549; format: cell-based, human; settings: Homo sapiens
Experimental: as §4, §3, §5

[6] = tested on: T98 Glioblastoma cell line; test: Antiproliferative activity, T98; format: cell-based, human; settings: Homo sapiens, T98, T98
Experimental: as §4, §3, §5

[7] = tested on: acetyl-a-tubuline expression in RPMI8226, U266, and NCI-H929; test: Acetyl-a-tubuline expression in multiple myeloma cell lines (immunoblotting); format: cell-based, human
Experimental: A study was conducted to evaluate the activity of a compound of Formula (I) in increasing acetyl-a-tubuline expression in human multiple myeloma cell lines (RPMI8226, U266, and NCI-H929).
Cells (1×10^6) were incubated for 10 minutes at 4° C. in a lysis buffer solution in a culture vessel, and then scraped off the culture vessel, incubated on ice for another 10 minutes, and centrifuged at 17,000×g for 30 minutes at 4° C. Protein samples (80 μg) were electrophoresed on SDS gels and transferred onto a nitrocellulose membrane, which was blocked by incubation with 5% fat-free milk in phosphate-buffered saline (PBS) for 30 minutes at room temperature. Immunoblotting was performed by overnight incubation at 4° C. with primary antibodies in PBS, followed by incubation for 1 hour at room temperature with horseradish peroxidase (HRP)-conjugated secondary antibodies, then bound antibodies were measured using enhanced chemiluminescence (ECL) reagent (Advansta Corp., Menlo Park, Calif., USA) and exposure to photographic film.
The study was performed according to the protocol reported in Yang et al., Journal of Molecular Medicine, 2014, November; 92(11):1147-1158.

[8] = tested on: PC-3 prostate cancer cell line; test: Antiproliferative activity, PC-3; format: cell-based, human; settings: Homo sapiens
Experimental: as §4, §3, §5

For `O=C(NO)c1ccc(CNc2cccc3cccnc23)cc1` [Compound 28, N-hydroxy-4-((quinolin-8-ylamino)methyl)benzamide], the “% TGI” value (MDA-MB-231 Breast; 25 mg/kg) was 38.6%, the “% TGI” value (MDA-MB-231 Breast; 50 mg/kg) was 56.4% and the induction of apoptosis [1] was “synergistically induced apoptosis”. The tolerability [2] was “well tolerated”, the GI50 [3] was 1.89 ± 0.33 µM and the “accumulation of polyubiquited proteins” value (polyubiquited proteins) was “induced accumulation of polyubiquited proteins”. The Aβ42 production [4] was “decreased Aβ42 production”, the “% TGI” value (HCT116 Colorectal; 50 mg/kg) was 9.1% and the “% TGI” value (HCT116 Colorectal; 100 mg/kg) was 44.4%. The GI50 [5] was 5.24 ± 0.18 µM, the GI50 [6] was 9.89 ± 0.92 µM and the acetyl-a-tubuline expression [7] was “increasing acetyl-a-tubuline expression in a dose-dependent manner”. The GI50 [8] was 3.4 ± 0.13 µM.
